Patent US9468661B2, “Pyrrolidine derivatives and their use as complement pathway modulators” (priority 2012, dated 2016)

Target: human factor D (Homo sapiens (Human), UniProt P00746)
Assay: biochemical
Assay type: biochemical
Conditions: Factor D inhibition data using Method 1; recombinant human factor D 10 nM, substrate Z-Lys-thiobenzyl, fluorescence; read-out: IC50
Method in brief: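 E. coli-expressed recombinant human factor D (10 nM) was preincubated with compound for 1 h at room temperature in 0.1 M Hepes pH 7.5, 1 mM MgCl2, 1 M NaCl, 0.05% CHAPS. Fluorescence (ex 485/em 535 nm) was read after adding Z-Lys-thiobenzyl (200 μM) and 2,4-dinitrobenzenesulfonyl-fluoresceine (25 μM); IC50 came from percent inhibition versus concentration.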

Sequence of human factor D (P00746 26-253): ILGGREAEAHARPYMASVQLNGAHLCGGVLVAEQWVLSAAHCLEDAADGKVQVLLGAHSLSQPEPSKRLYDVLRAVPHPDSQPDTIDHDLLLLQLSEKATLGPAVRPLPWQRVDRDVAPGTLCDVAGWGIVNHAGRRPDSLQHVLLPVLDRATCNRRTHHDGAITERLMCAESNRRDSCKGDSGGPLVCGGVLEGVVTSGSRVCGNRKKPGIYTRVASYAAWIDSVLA

Row | Compound | IC50 [nM]
1 | CC(=O)c1nn(CC(=O)N2[C@@H]3C[C@@H]3C[C@H]2C(=O)NC[C@H]2CC2(Cl)Cl)c2ccc(CCc3ncccn3)cc12 [Example 43, (1R,3S,5R)-2-{2-[3-Acetyl-5-(2-pyrimidin-2-yl-ethyl)-indazol-1-yl]-acetyl}-2-aza-bicyclo[3.1.0] hexane-3-carboxylic acid ((R)-2,2-dichloro-cyclopropylmethyl)-amide] | 71
2 | Cc1nccc2c(C(N)=O)nn(CC(=O)N3[C@@H]4C[C@@H]4C[C@H]3C(=O)N[C@H](C)[C@H]3CC3(Cl)Cl)c12 [Example 44, 1-(2-{(1R,3S,5R)-3-[(R)-1-((R)-2,2-Dichloro-cyclopropyl)-ethylcarbamoyl]-2-aza-bicyclo[3.1.0]hex-2-yl}-2-oxo-ethyl)-7-methyl-1H-pyrazolo[3,4-c]pyridine-3-carboxylic acid amide] | 41
3 | Cc1cc2c(C(N)=O)nn(CC(=O)N3[C@@H]4C[C@@H]4C[C@H]3C(=O)N[C@H](C)[C@H]3CC3(Cl)Cl)c2c(C)n1 [Example 45, 1-(2-{(1R,3S,5R)-3-[(R)-1-((R)-2,2-Dichloro-cyclopropyl)-ethylcarbamoyl]-2-aza-bicycio[3.1.0]hex-2-yl}-2-oxo-ethyl)-5,7-dimethyl-1H-pyrazolo[3,4-c]pyridine-3-carboxylic acid amide] | 43
4 | CC(=O)c1nn(CC(=O)N2[C@@H]3C[C@@H]3C[C@H]2C(=O)N[C@H](C)[C@H]2CC2(Cl)Cl)c2ccccc12 [Example 46, (1R,3S,5R)-2-[2-(3-Acetyl-indazol-1-yl)-acetyl]-2-aza-bicyclo[3.1.0]hexane-3-carboxylic acid [(R)-1-((R)-2,2-dichloro-cyclopropyl)-ethyl]-amide] | 12
5 | CC(=O)c1nn(CC(=O)N2[C@@H]3C[C@@H]3C[C@H]2C(=O)N[C@H](C)[C@H]2CC2(Cl)Cl)c2cnccc12 [Example 47, (1R,3S,5R)-2-[2-(3-Acetyl-pyrazolo[3,4-c]pyridin-1-yl)-acetyl]-2-aza-bicyclo[3.1.0] hexane-3-carboxylic acid [(R)-1-((R)-2,2-dichloro-cyclopropyl)-ethyl]-amide] | 35
6 | CO[C@H]1[C@@H](C(=O)NC[C@H]2CC2(Cl)Cl)N(C(=O)Cn2nc(C(N)=O)c3ccc(C)cc32)C[C@@H]1F [Example 48, 1-(2-{(2S,3S,4S)-2-[((R)-2,2-Dichloro-cyclopropylmethyl)-carbamoyl]-4-fluoro-3-methoxy-pyrrolidin-1-yl}-2-oxo-ethyl)-6-methyl-1H-indazole-3-carboxylic acid amide] | 27
7 | C[C@@H](NC(=O)[C@@H]1C[C@H]2C[C@H]2N1C(=O)Cn1nc(C(N)=O)c2ccc(Cl)cc21)[C@H]1CC1(Cl)Cl [Example 49, 6-Chloro-1-(2-{(1R,3S,5R)-3-[(R)-1-((R)-2,2-dichloro-cyclopropyl)-ethylcarbamoyl]-2-aza-bicyclo[3.1.0]hex-2-yl}-2-oxo-ethyl)-1H-indazole-3-carboxylic acid amide] | 4
8 | NC(=O)c1nn(CC(=O)N2[C@H](C(=O)NC[C@H]3CC3(Cl)Cl)C[C@@]3(CO)C[C@@H]23)c2ccccc12 [Example 52, 1-(2-{(1R,3S,5S)-3-[((R)-2,2-Dichloro-cyclopropylmethyl)-carbamoyl]-5-hydroxymethyl-2-aza-bicyclo[3.1.0]hex-2-yl}-2-oxo-ethyl)-1H-indazole-3-carboxylic acid amide] | 56
9 | C[C@@H](NC(=O)[C@@H]1C[C@H]2C[C@H]2N1C(=O)Cn1nc(C(N)=O)c2ccccc21)C1CCCCC1 [Example 54, 1-{2-[(1R,3S,5R)-3-((R)-1-Cyclohexyl-ethylcarbamoyl)-2-aza-bicyclo[3.1.0]hex-2-yl]-2-oxo-ethyl}-1H-indazole-3-carboxylic acid amide] | 64
10 | C[C@@H](NC(=O)[C@@H]1C[C@H]2C[C@H]2N1C(=O)Cn1nc(C(N)=O)c2ccncc21)C1CCCCC1 [Example 55, 1-{2-[(1R,3S,5R)-3-((R)-1-Cyclohexyl-ethylcarbamoyl)-2-aza-bicyclo[3.1.0]hex-2-yl]-2-oxo-ethyl}-1H-pyrazolo[3,4-c]pyridine-3-carboxylic acid amide] | 158
11 | CC(=O)c1nn(CC(=O)N2[C@@H]3C[C@@H]3C[C@H]2C(=O)NC[C@H]2CC2(Cl)Cl)c2ccc(OCc3nccc(C)n3)cc12 [Example 56, (1R,3S,5R)-2-{2-[3-Acetyl-5-(4-methyl-pyrimidin-2-ylmethoxy)-indazol-1-yl]-acetyl}-2-aza-bicyclo[3.1.0]hexane-3-carboxylic acid ((R)-2,2-dichloro-cyclopropylmethyl)-amide] | 8
12 | C[C@@H](NC(=O)[C@@H]1C[C@@]2(CO)C[C@H]2N1C(=O)Cn1nc(C(N)=O)c2ccccc21)[C@H]1CC1(Cl)Cl [Example 57, 1-(2-{(1R,3S,5S)-3-[(R)-1-((R)-2,2-Dichloro-cyclopropyl)-ethylcarbamoyl]-5-hydroxymethyl-2-aza-bicyclo[3.1.0]hex-2-yl}-2-oxo-ethyl)-1H-indazole-3-carboxylic acid amide] | 17
13 | C[C@@H](NC(=O)[C@@H]1C[C@@H](F)CN1C(=O)Cn1nc(C(N)=O)c2ccccc21)[C@H]1CC1(Cl)Cl [Example 58, 1-(2-{(2S,4R)-2-[(R)-1-((R)-2,2-Dichloro-cyclopropyl)-ethylcarbamoyl]-4-fluoro-pyrrolidin-1-yl}-2-oxo-ethyl)-1H-indazole-3-carboxylic acid amide] | 39
14 | CO[C@H]1[C@@H](C(=O)N[C@H](C)[C@H]2CC2(Cl)Cl)N(C(=O)Cn2nc(C(N)=O)c3ccccc32)C[C@@H]1F [Example 59, 1-(2-{(2S,3S,4S)-2-[(R)-1-((R)-2,2-Dichloro-cyclopropyl)-ethylcarbamoyl]-4-fluoro-3-methoxy-pyrrolidin-1-yl}-2-oxo-ethyl)-1H-indazole-3-carboxylic acid amide] | 14
15 | C[C@@]1(F)C[C@@H](C(=O)NC[C@H]2CC2(Cl)Cl)N(C(=O)Cn2nc(C(N)=O)c3ccccc32)C1 [Example 60, 1-(2-{(2S,4R)-2-[((R)-2,2-Dichloro-cyclopropylmethyl)-carbamoyl]-4-fluoro-4-methyl-pyrrolidin-1-yl}-2-oxo-ethyl)-1H-indazole-3-carboxylic acid amide] | 124
16 | CC(=O)c1nn(CC(=O)N2[C@@H]3C[C@@H]3C[C@H]2C(=O)N[C@H](C)[C@H]2CC2(Cl)Cl)c2ccc(OCc3ncn(C)n3)cc12 [Example 61, (1R,3S,5R)-2-{2-[3-Acetyl-5-(1-methyl-1H-[1,2,4]triazol-3-ylmethoxy)-indazol-1-yl]-acetyl}-2-aza-bicyclo[3.1.0]hexane-3-carboxylic acid [(R)-1-((R)-2,2-dichloro-cyclopropyl)-ethyl]-amide] | 3
17 | CC(=O)c1nn(CC(=O)N2[C@@H]3C[C@@H]3C[C@H]2C(=O)NCC2CC(F)(F)C2)c2ccc(OCc3ncccn3)cc12 [Example 62, (1R,3S,5R)-2-{2-[3-Acetyl-5-(pyrimidin-2-ylmethoxy)-indazol-1-yl]-acetyl}-2-aza-bicyclo[3.1.0] hexane-3-carboxylic acid (3,3-difluoro-cyclobutylmethyl)-amide] | 162
18 | CC(=O)c1nn(CC(=O)N2[C@@H]3C[C@@H]3C[C@H]2C(=O)N[C@H](C)[C@H]2CC2(Cl)Cl)c2ccc(OCc3cc(C)[nH]n3)cc12 [Example 64, (1R,3S,5R)-2-{2-[3-Acetyl-5-(5-methyl-1H-pyrazol-3-ylmethoxy)-indazol-1-yl]-acetyl}-2-aza-bicyclo[3.1.0]hexane-3-carboxylic acid [(R)-1-((R)-2,2-dichloro-cyclopropyl)-ethyl]-amide] | 3
19 | CC(=O)c1nn(CC(=O)N2[C@@H]3C[C@@H]3C[C@H]2C(=O)N[C@H](C)[C@H]2CC2(Cl)Cl)c2ccc(OCc3ccn(C)n3)cc12 [Example 66, (1R,3S,5R)-2-{2-[3-Acetyl-5-(1-methyl-1H-pyrazol-3-ylmethoxy)-indazol-1-yl]-acetyl}-2-aza-bicyclo[3.1.0]hexane-3-carboxylic acid [(R)-1-((R)-2,2-dichloro-cyclopropyl)-ethyl]-amide] | 4
20 | NC(=O)c1nn(CC(=O)N2[C@@H]3C[C@@H]3C[C@H]2C(=O)NCC2CC2(F)F)c2ccccc12 (stereo partly drawn) [Example 67, 1-(2-{(1R,3S,5R)-3-[(2,2-Difluoro-cyclopropylmethyl)-carbamoyl]-2-aza-bicyclo[3.1.0]hex-2-yl}-2-oxo-ethyl)-1H-indazole-3-carboxylic acid amide] | 428
21 | CC(=O)c1nn(CC(=O)N2[C@@H]3C[C@@H]3C[C@H]2C(=O)NC[C@@H]2CC2(Cl)Cl)c2ncccc12 [Example 68, (1R,3S,5R)-2-[2-(3-Acetyl-pyrazolo[3,4-b]pyridin-1-yl)-acetyl]-2-aza-bicyclo[3.1.0] hexane-3-carboxylic acid ((S)-2,2-dichloro-cyclopropylmethyl)-amide] | 177
22 | CC(=O)c1nn(CC(=O)N2[C@@H]3C[C@@H]3C[C@H]2C(=O)NC[C@H]2CC2(Cl)Cl)c2ncccc12 [Example 69, (1R,3S,5R)-2-[2-(3-Acetyl-pyrazolo[3,4-b]pyridin-1-yl)-acetyl]-2-aza-bicyclo[3.1.0] hexane-3-carboxylic acid ((R)-2,2-dichloro-cyclopropylmethyl)-amide] | 53
23 | NC(=O)c1nn(CC(=O)N2[C@@H]3C[C@@H]3C[C@H]2C(=O)NC[C@@H]2CC2(Cl)Cl)c2ccccc12 [Example 70, 1-(2-{(1R,3S,5R)-3-[((S)-2,2-Dichloro-cyclopropylmethyl)-carbamoyl]-2-aza-bicyclo[3.1.0]hex-2-yl}-2-oxo-ethyl)-1H-indazole-3-carboxylic acid amide] | 90
24 | NC(=O)c1nn(CC(=O)N2[C@@H]3C[C@@H]3C[C@H]2C(=O)NC[C@@H]2CC2(Cl)Cl)c2cnccc12 [Example 71, 1-(2-{(1R,3S,5R)-3-[((S)-2,2-Dichloro-cyclopropylmethyl)-carbamoyl]-2-aza-bicyclo[3.1.0]hex-2-yl}-2-oxo-ethyl)-1H-pyrazolo[3,4-c]pyridine-3-carboxylic acid amide] | 136
